The results in this text go back to patent publication US12577273B2, “Small molecule modulators of gut bacterial bile acid metabolism” (priority 2019, dated 2026).

Where “and” joins values, the source holds several entries; their conditions need not be identical. Equal values may be shown once. Entries after “also recorded” stand apart in the source; their conditions may differ.

One assay concerns the target T1, B. longum BSH (Bifidobacterium longum, UniProt Q9KK62).
T1 sequence (Q9KK62 1-317): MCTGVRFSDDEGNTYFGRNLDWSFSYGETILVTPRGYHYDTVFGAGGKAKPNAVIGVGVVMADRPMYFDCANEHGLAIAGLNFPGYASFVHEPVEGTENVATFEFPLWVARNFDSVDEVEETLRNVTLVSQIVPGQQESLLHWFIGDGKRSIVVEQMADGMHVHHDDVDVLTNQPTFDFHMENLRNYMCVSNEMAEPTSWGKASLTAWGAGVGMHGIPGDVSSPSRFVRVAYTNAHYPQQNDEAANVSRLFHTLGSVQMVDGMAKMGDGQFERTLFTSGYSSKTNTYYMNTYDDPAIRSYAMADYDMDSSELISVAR
As to the kind of experiment: Inhibitor screen using rBSH, B. longum BSH (UPLC-MS % deconjugation). Format: biochemical, Bifidobacterium longum SBT2928. Details: His6 (C); made in house; host or cells: Escherichia coli (as for the B. theta enzyme). As to conditions: 100 μM inhibitor; for % deconjugation of TCA / % deconjugation of TDCA / % deconjugation of TUDCA / % deconjugation of TβMCA: 200 nM rBSH, bile acid pool, replicates 1-3. The protocol: B. longum rBSH. Recombinant BSH from B. longum SBT2928 was expressed and purified as above, except 0.25 mM IPTG was used for protein expression and 1 mM TCEP for protein purification.
Inhibitor Screen Using rBSHs.

Assay [1] deals with BSH activity in conventional mouse feces. As to the kind of experiment: Screen of inhibitors in conventional mouse feces. The format is biochemical. As to conditions: 20 μM inhibitor, 30 min, then GCDCA-d4 100 μM, 18 hours. The protocol: Screen of Inhibitors in Conventional Mouse Feces. […] The tubes were then frozen in dry ice for 5 mins and upon thawing were diluted with an equal volume of methanol. […] The supernatant was removed into a clean eppendorf tube and centrifuged again. […] The concentration of product detected from these assays was reported directly.

The target in a further assay is B. theta BSH (Bacteroides thetaiotaomicron, UniProt Q8A600). As to the kind of experiment: Inhibitor screen using rBSH, B. theta BSH (UPLC-MS % deconjugation). As to conditions: 100 μM inhibitor; for inhibition of B. theta BSH (in words): 30 min preincubation, monitored over 21 hours; for % deconjugation of TDCA / % deconjugation of TUDCA / % deconjugation of TβMCA / % deconjugation of TCA: 200 nM rBSH, replicates 1-3.

Another assay deals with B. theta cultures. The assay is described as follows: BSH inhibition in growing B. theta cultures, single substrate (GUDCA or TUDCA). As to conditions: 10 μM inhibitor; for BSH inhibition in B. theta cultures compared to 7 (in words): 100 μM TUDCA; for deconjugation of GUDCA in growing B. theta cultures (in words): 100 μM GUDCA. The format is cell-based, Bacteroides thetaiotaomicron.

The mark [2] stands for this setting: FIG. 2a, 2 hours, bile acid pool.
Where [3] appears, read: FIG. 2a, 2 hours, pool of four tauro conjugated bile acids 25 μM each.
[4] abbreviates: FIG. 2a, 21 hours, bile acid pool.
[5] abbreviates: Supplementary FIG. 3a, 5 hours, bile acid pool.

Consider `C[C@H](CCN=C=S)[C@H]1CC[C@H]2[C@@H]3[C@H](O)C[C@@H]4C[C@H](O)CC[C@]4(C)[C@H]3CC[C@]12C` [Compound 1], for which, on B. longum BSH (2 h, 5 h and 21 h timepoints), the “inhibition of B. longum BSH (in words)” value was “modest inhibition”. The “% deconjugation of TCA” value on B. longum BSH (FIG. 2b, 2 hours) was 0.10% and 0.89% and 0.43%; on B. longum BSH (FIG. 2b, 21 hours) it was 9.02% and 3.00% and 8.03%; on B. longum BSH (Supplementary FIG. 3b, 5 hours), 4.13% and 4.57% and 4.31%; at B. theta BSH (setting [3]), 0.12% and 0.17% and 0.29%; on B. theta BSH (setting [4]) it was 0.12% and 0.17% and 0.15%; at B. theta BSH (setting [5]), 0.25% and 0.00% and 0.21%. Moreover, the “% deconjugation of TDCA” value on B. longum BSH (FIG. 2b, 2 hours) is 7.25% and 4.34% and 2.20%; on B. longum BSH (FIG. 2b, 21 hours), 23.33% and 14.91% and 20.42%; on B. longum BSH (Supplementary FIG. 3b, 5 hours) it was 9.85% and 11.26% and 11.96%; at B. theta BSH (setting [2]), 51.40% and 46.10% and 43.43%; at B. theta BSH (setting [4]), 45.18% and 51.87% and 45.19%; at B. theta BSH (setting [5]), 52.56% and 51.54% and 45.63%. Moreover, the “% deconjugation of TUDCA” value on B. longum BSH (FIG. 2b, 2 hours) was 2.12% and 1.09% and 0.61%; on B. longum BSH (FIG. 2b, 21 hours), 4.57% and 2.48% and 3.66%; at B. longum BSH (Supplementary FIG. 3b, 5 hours) it was 2.44% and 2.49% and 2.64%; at B. theta BSH (setting [2]), 37.96% and 35.92% and 33.34%; at B. theta BSH (setting [4]) it was 34.40% and 41.24% and 37.45%; at B. theta BSH (setting [5]) it was 38.73% and 40.02% and 35.99%. The “% deconjugation of TβMCA” value was 2.49% and 0.05% and 0.03% on B. longum BSH (FIG. 2b, 2 hours); 0.21% and 0.13% and 0.28% at B. longum BSH (FIG. 2b, 21 hours); 0.10% and 0.11% (2×) on B. longum BSH (Supplementary FIG. 3b, 5 hours); 3.72% and 3.29% and 3.28% at B. theta BSH (setting [2]); 3.18% and 4.28% and 3.11% at B. theta BSH (setting [4]); 4.42% and 4.47% and 3.37% on B. theta BSH (setting [5]). Also, the “BSH activity in resuspended conventional mouse feces (in words)” value in assay [1] is reported as “moderate BSH inhibition; also recorded: decreased deconjugation”. For the same compound, the “inhibition of B. theta BSH (in words)” value against B. theta BSH is “modest inhibition”.
`C#CC(=O)CC[C@@H](C)[C@H]1CC[C@H]2[C@@H]3[C@H](O)C[C@@H]4C[C@H](O)CC[C@]4(C)[C@H]3CC[C@]12C` [Compound 4]: the “% deconjugation of TDCA” value at B. theta BSH (setting [2]) was 97.26% and 96.13% and 94.56%; at B. theta BSH (setting [4]), 95.87% and 95.61% and 96.21%; on B. theta BSH (setting [5]) it was 99.59% and 99.50% and 99.01%. Further, the “% deconjugation of TUDCA” value at B. theta BSH (setting [2]) is 94.07% and 91.62% and 89.81%; at B. theta BSH (setting [4]) it was 98.54% and 97.31% and 97.80%; at B. theta BSH (setting [5]) it was 98.43% and 98.54% and 97.17%. The “% deconjugation of TβMCA” value at B. theta BSH (setting [2]) was 32.07% and 29.34% and 22.69%; on B. theta BSH (setting [4]), 47.65% and 32.41% and 43.47%; at B. theta BSH (setting [5]) it was 26.17% and 45.65% and 37.57%. Also, the “% deconjugation of TCA” value is 0.47% and 1.15% and 0.30% on B. theta BSH (setting [3]); 1.50% and 0.85% and 1.80% on B. theta BSH (setting [4]); 0.40% and 1.92% and 1.29% at B. theta BSH (setting [5]).
Regarding `CC(=O)CC[C@@H](C)[C@H]1CC[C@H]2[C@@H]3[C@H](O)C[C@@H]4C[C@H](O)CC[C@]4(C)[C@H]3CC[C@]12C` [Compound 8], the “inhibition of B. theta BSH (in words)” value against B. theta BSH is “did not display BSH inhibition; also recorded: did not display BSH inhibition against either recombinant protein or B. theta cultures”. For the same compound, the “BSH inhibition in B. theta cultures compared to 7 (in words)” value with B. theta cultures is on record as “less potent inhibitors of B. theta BSH than compound 7; also recorded: did not display BSH inhibition against either recombinant protein or B. theta cultures”.
As to `C[C@H](CCC(=O)CF)[C@H]1CC[C@H]2[C@@H]3[C@H](O)C[C@@H]4C[C@H](O)CC[C@]4(C)[C@H]3C[C@H](O)[C@]12C` [Compound 9], in the assay with B. theta cultures, the “deconjugation of GUDCA in growing B. theta cultures (in words)” value is “significantly diminished activity to inhibit B. theta BSH” and the “BSH inhibition in B. theta cultures compared to 7 (in words)” value is “less potent inhibitors of B. theta BSH than compound 7; also recorded: significantly reduced ability to inhibit BSH deconjugation”. The “deconjugation of GUDCA in growing B. theta cultures (in words)” value in the assay with B. theta cultures (listed as compound 9) is reported as “significant deconjugation was observed”.
